According to PubChem BioAssay AID1259334 (Broad Institute, 2017):
Calls of active or inactive are those of the source. No stated cut-off is given here; in the data, active means AC50 below about 11 µM.

What was measured:
[1] = system: B cell line, TNFa signaling counterscreen reporter; assay: TNFa pathway inhibition counter-screen, B-lineage cells – dose response (AID 1259334);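 further: cells stimulated with TNFa after compound preincubation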
[2] = as above; details: B cell line, TNFa signaling counterscreen reporter, active compounds read low

## O=C(c1ccc(F)cc1)N1C[C@@H]2N[C@H](C1)C2c1ccc(/C=C/c2ccccc2)cc1 (stereo not given in full)
[1]
  AC50: 7.15 µM
[2]; at 3.5 µM
  max activity: 10.7% (inactive)

## N#C[C@@H]1[C@@H](c2ccccc2)[C@H](CO)N1C(=O)CN1CCOCC1
[2]; at 10 µM
  max activity: 46.9% (inactive)

## CC(C)NC(=O)N1CC(=O)N2[C@H](CO)[C@@H](c3ccc(/C=C/c4ccccc4)cc3)[C@H]2C1
[2]; at 0.38 µM
  max activity: -8.8% (inactive)

## O=C1C=CC(=O)C2=C1C1c3ccccc3C2c2ccccc21
[2]; at 0.0135 µM
  max activity: 13% (inactive)

## O=c1cc(-c2ccccc2)oc2cc(O)cc(O)c12
[2]; at 0.12 µM
  max activity: 45.8% (inactive)

## COC(=O)c1ccc2c(=O)[nH]c(COC(=O)c3c(-c4ccccc4)noc3C)nc2c1
[2]; at 3.5 µM
  max activity: 8.26% (inactive)

## Cc1ccc(C(CC(=O)NCc2ccco2)c2ccc(OC(C)C)cc2)cc1 (stereo not given)
[2]; at 3.5 µM
  max activity: 36% (inactive)

## N#C[C@H]1[C@H](c2ccc(C#CC3CCCCC3)cc2)[C@H](CO)N1C(=O)Nc1ccc(F)cc1
[2]; at 0.0135 µM
  max activity: 9.39% (inactive)

## COc1ccc2c3c(n(C)c2c1)[C@H](CO)N(C(=O)Nc1ccc(F)cc1)CC31CCN(C(=O)Nc2ccc(F)cc2F)CC1
[2]; at 0.0135 µM
  max activity: -5.85% (inactive)
